Active and inactive are the calls of the source. No rule for the calls is given here.
Tested on: CCRIS mutagenicity, Ames/micronucleus/aberration tests
Assay: CCRIS mutagenicity studies
[1] = Test System: AMES SALMONELLA TYPHIMURIUM, Strain/Indicator: TA98, Metabolic Activation: HAMSTER, LIVER, S-9, AROCLOR 1254 (10%), Method: PREINCUBATION
[2] = Test System: AMES SALMONELLA TYPHIMURIUM, Strain/Indicator: TA98, Metabolic Activation: NONE, Method: PREINCUBATION
[3] = Test System: AMES SALMONELLA TYPHIMURIUM, Strain/Indicator: TA98, Metabolic Activation: RAT, LIVER, S-9, AROCLOR 1254 (10%), Method: PREINCUBATION
[4] = Test System: AMES SALMONELLA TYPHIMURIUM, Strain/Indicator: TA100, Metabolic Activation: HAMSTER, LIVER, S-9, AROCLOR 1254 (10%), Method: PREINCUBATION
[5] = Test System: AMES SALMONELLA TYPHIMURIUM, Strain/Indicator: TA100, Metabolic Activation: NONE, Method: PREINCUBATION
[6] = Test System: AMES SALMONELLA TYPHIMURIUM, Strain/Indicator: TA100, Metabolic Activation: RAT, LIVER, S-9, AROCLOR 1254 (10%), Method: PREINCUBATION
[7] = Test System: AMES SALMONELLA TYPHIMURIUM, Strain/Indicator: TA1535, Metabolic Activation: HAMSTER, LIVER, S-9, AROCLOR 1254 (10%), Method: PREINCUBATION
[8] = Test System: AMES SALMONELLA TYPHIMURIUM, Strain/Indicator: TA1535, Metabolic Activation: NONE, Method: PREINCUBATION
[9] = Test System: AMES SALMONELLA TYPHIMURIUM, Strain/Indicator: TA1535, Metabolic Activation: RAT, LIVER, S-9, AROCLOR 1254 (10%), Method: PREINCUBATION

Measured: mutagenic call

C=C(Cl)CCl
inactive: Test System: AMES SALMONELLA TYPHIMURIUM, Strain/Indicator: TA98, Metabolic Activation: RAT, LIVER, S-9, AROCLOR 1254, Method: STANDARD PLATE inactive; negative | Test System: AMES SALMONELLA TYPHIMURIUM, Strain/Indicator: TA100, Metabolic Activation: RAT, LIVER, MICROSOMES, PHENOBARBITAL, NADPH COFACTORS, Method: STANDARD PLATE inactive; negative | Test System: AMES SALMONELLA TYPHIMURIUM, Strain/Indicator: TA100, Metabolic Activation: RAT, LIVER, MICROSOMES, PHENOBARBITAL, Method: STANDARD PLATE inactive; negative | Test System: AMES SALMONELLA TYPHIMURIUM, Strain/Indicator: TA102, Metabolic Activation: S-9, Method: STANDARD PLATE inactive; negative | Test System: AMES SALMONELLA TYPHIMURIUM, Strain/Indicator: TA1537, Metabolic Activation: HAMSTER, LIVER, S-9, AROCLOR 1254, Method: STANDARD PLATE inactive; negative | Test System: AMES SALMONELLA TYPHIMURIUM, Strain/Indicator: TA1537, Metabolic Activation: NONE, Method: STANDARD PLATE inactive; negative | Test System: AMES SALMONELLA TYPHIMURIUM, Strain/Indicator: TA1537, Metabolic Activation: RAT, LIVER, S-9, AROCLOR 1254, Method: STANDARD PLATE inactive; negative | Test System: AMES SALMONELLA TYPHIMURIUM, Strain/Indicator: TA1538, Metabolic Activation: HAMSTER, LIVER, S-9, AROCLOR 1254, Method: STANDARD PLATE inactive; negative | Test System: AMES SALMONELLA TYPHIMURIUM, Strain/Indicator: TA1538, Metabolic Activation: NONE, Method: STANDARD PLATE inactive; negative | Test System: AMES SALMONELLA TYPHIMURIUM, Strain/Indicator: TA1538, Metabolic Activation: RAT, LIVER, S-9, AROCLOR 1254, Method: STANDARD PLATE inactive; negative | Test System: AMES SALMONELLA TYPHIMURIUM, Strain/Indicator: TA2638, Metabolic Activation: S-9, Method: STANDARD PLATE inactive; negative | Test System: E. COLI, Strain/Indicator: WP2 (PKM101), Metabolic Activation: S-9, Method: STANDARD PLATE inactive; negative
active: End Point: IN VITRO CHROMOSOMAL ABERRATIONS, Test System: CHO-LB CELLS, Metabolic Activation: NONE active; positive | End Point: IN VITRO CHROMOSOMAL ABERRATIONS, Test System: CHO-LB CELLS, Metabolic Activation: RAT, LIVER, S-9, AROCLOR 1254 active; positive | Test System: AMES SALMONELLA TYPHIMURIUM, Strain/Indicator: TA97, Metabolic Activation: HAMSTER, LIVER, S-9, AROCLOR 1254 (10%), Method: PREINCUBATION active; positive | Test System: AMES SALMONELLA TYPHIMURIUM, Strain/Indicator: TA97, Metabolic Activation: NONE, Method: PREINCUBATION active; positive | Test System: AMES SALMONELLA TYPHIMURIUM, Strain/Indicator: TA97, Metabolic Activation: RAT, LIVER, S-9, AROCLOR 1254 (10%), Method: PREINCUBATION active; positive | [1] active; positive | Test System: AMES SALMONELLA TYPHIMURIUM, Strain/Indicator: TA98, Metabolic Activation: HAMSTER, LIVER, S-9, AROCLOR 1254, Method: STANDARD PLATE active; positive | [2] active; positive | Test System: AMES SALMONELLA TYPHIMURIUM, Strain/Indicator: TA98, Metabolic Activation: NONE, Method: STANDARD PLATE active; positive | [3] active; positive | [4] active; positive | Test System: AMES SALMONELLA TYPHIMURIUM, Strain/Indicator: TA100, Metabolic Activation: HAMSTER, LIVER, S-9, AROCLOR 1254, Method: STANDARD PLATE active; positive | [5] active; positive | Test System: AMES SALMONELLA TYPHIMURIUM, Strain/Indicator: TA100, Metabolic Activation: NONE, Method: STANDARD PLATE active; positive | [6] active; positive | Test System: AMES SALMONELLA TYPHIMURIUM, Strain/Indicator: TA100, Metabolic Activation: RAT, LIVER, S-9, AROCLOR 1254, Method: STANDARD PLATE active; positive | [7] active; positive | Test System: AMES SALMONELLA TYPHIMURIUM, Strain/Indicator: TA1535, Metabolic Activation: HAMSTER, LIVER, S-9, AROCLOR 1254, Method: STANDARD PLATE active; positive | [8] active; positive | Test System: AMES SALMONELLA TYPHIMURIUM, Strain/Indicator: TA1535, Metabolic Activation: NONE, Method: STANDARD PLATE active; positive | [9] active; positive | Test System: AMES SALMONELLA TYPHIMURIUM, Strain/Indicator: TA1535, Metabolic Activation: RAT, LIVER, S-9, AROCLOR 1254, Method: STANDARD PLATE active; positive | Test System: AMES SALMONELLA TYPHIMURIUM, Strain/Indicator: TA1978, Metabolic Activation: NONE, Method: STANDARD PLATE active; positive | Test System: AMES SALMONELLA TYPHIMURIUM, Strain/Indicator: TA1978, Metabolic Activation: RAT, LIVER, S-9, AROCLOR 1254, Method: STANDARD PLATE active; positive | Test System: E. COLI, Strain/Indicator: WP2 UVRA (PKM101), Metabolic Activation: S-9, Method: STANDARD PLATE active; positive | Test System: MOUSE LYMPHOMA, Strain/Indicator: L5178Y (TK+/TK-), Metabolic Activation: NONE, Method: SUSPENSION/PLATE active; positive. reevaluation of results: positive | Test System: MOUSE LYMPHOMA, Strain/Indicator: L5178Y (TK+/TK-), Metabolic Activation: RAT, LIVER, S-9, AROCLOR 1254, Method: SUSPENSION/PLATE active; positive. reevaluation of results: positive

CCCCCCCCC/C=C/CC1CC(=O)OC1=O (stereo unspecified)
inactive: [1] inactive; negative | [2] inactive; negative | [3] inactive; negative | [4] inactive; negative | [5] inactive; negative | [6] inactive; negative | [7] inactive; negative | [8] inactive; negative | [9] inactive; negative | Test System: AMES SALMONELLA TYPHIMURIUM, Strain/Indicator: TA1537, Metabolic Activation: HAMSTER, LIVER, S-9, AROCLOR 1254 (10%), Method: PREINCUBATION inactive; negative | Test System: AMES SALMONELLA TYPHIMURIUM, Strain/Indicator: TA1537, Metabolic Activation: NONE, Method: PREINCUBATION inactive; negative | Test System: AMES SALMONELLA TYPHIMURIUM, Strain/Indicator: TA1537, Metabolic Activation: RAT, LIVER, S-9, AROCLOR 1254 (10%), Method: PREINCUBATION inactive; negative
